This is an account of results in PubChem BioAssay (NCI).

Some test systems named below: TK-10 renal; MALME-3M melanoma; IGROV1 ovarian; A549 NSCLC; NCI-H23 lung; 786-0 renal; NCI-H522 lung; SW-620 colon; UACC-257 melanoma; K-562 leukemia; OVCAR-3 ovarian; HCT-15 colon; SR leukemia; OVCAR-4 ovarian; SN12C renal.
What all share (experiment): NCI tumour cell line growth inhibition, 48 h

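1) Cells in 96-well plates. 2) Compound, 48 h, 5 concentrations. 3) Linear interpolation between surrounding doses. 4) Unreached endpoint = highest concentration. TGI: total growth inhibition.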

As for `COC(=O)N/N=C(\Cc1ccccc1)CN(C)C`, the TGI in the test on TK-10 renal, in the test with MALME-3M melanoma, in the test on IGROV1 ovarian, with A549 NSCLC, with NCI-H23 lung and with 786-0 renal was over 100 µM each time. The TGI with NCI-H522 lung, with SW-620 colon, with UACC-257 melanoma, in the test with K-562 leukemia and in the test with OVCAR-3 ovarian was over 100 µM throughout.

For the molecule `COc1ccc2c3c1O[C@]1(C)C34CCN(C)C(C2)C42C=C[C@@]1(OC)c1c(O)ccc(O)c12`, the TGI with TK-10 renal, with MALME-3M melanoma, in the test with IGROV1 ovarian, in the test with A549 NSCLC, in the test with NCI-H23 lung and with 786-0 renal was over 100 µM each time. Further, the TGI with NCI-H522 lung, in the test on SW-620 colon, in the test with UACC-257 melanoma, in the test on K-562 leukemia and with OVCAR-3 ovarian was over 100 µM in each case.

As for `C/C(=N\NS(=O)(=O)c1ccc(C)cc1)C(CN1CCCCC1)C(c1ccccc1)c1c(O)c2ccccc2oc1=O` (centres undefined), the TGI in the test with TK-10 renal, in the test with MALME-3M melanoma, with IGROV1 ovarian, in the test on A549 NSCLC, in the test with NCI-H23 lung and with 786-0 renal was over 100 µM each time. The TGI with HCT-15 colon, in the test with SR leukemia, in the test with NCI-H522 lung, in the test on SW-620 colon, with UACC-257 melanoma and with K-562 leukemia was over 100 µM in each case. Moreover, the TGI in the test on OVCAR-4 ovarian, in the test with SN12C renal and in the test on OVCAR-3 ovarian was over 100 µM each time.

With `C=Cc1ccc(C)[n+](C[Si](C)(C)O[Si](C)(C)C)c1`, the TGI in the test on MALME-3M melanoma, with IGROV1 ovarian, with A549 NSCLC, with NCI-H23 lung, in the test with 786-0 renal and in the test with HCT-15 colon was over 100 µM throughout. The TGI with SR leukemia, in the test with NCI-H522 lung, in the test on SW-620 colon, with UACC-257 melanoma, in the test with K-562 leukemia and in the test on OVCAR-4 ovarian was over 100 µM throughout. Besides, the TGI in the test with SN12C renal and in the test with OVCAR-3 ovarian was over 100 µM throughout.

`Cn1cc2ccccc2c1-c1nc(F)nc(F)n1`: the TGI in the test on TK-10 renal, in the test with MALME-3M melanoma, with IGROV1 ovarian, with A549 NSCLC, in the test on NCI-H23 lung and with 786-0 renal was over 100 µM in each case. Also, the TGI with HCT-15 colon, with SR leukemia, in the test with NCI-H522 lung, with SW-620 colon, with K-562 leukemia and with OVCAR-4 ovarian was over 100 µM each time. Moreover, the TGI in the test on SN12C renal and with OVCAR-3 ovarian was over 100 µM each time.

Take `C[N+](C)(C)CC(=O)N/N=C/c1oc(-c2c(O)ccc3ccccc23)c(-c2c(O)ccc3ccccc23)c1[N+](=O)[O-]`: the TGI in the test with TK-10 renal was found to be 87.1 µM; in the test with MALME-3M melanoma it was 28.2 µM; in the test on IGROV1 ovarian it was 44.2 µM; with A549 NSCLC, 81.5 µM; in the test with NCI-H23 lung, 37.2 µM; in the test with 786-0 renal, 44.3 µM. The TGI in the test on SR leukemia was 58.3 µM; in the test with NCI-H522 lung, 31.1 µM; in the test on SW-620 colon, over 100 µM; in the test with UACC-257 melanoma, 51.9 µM; in the test on K-562 leukemia, over 100 µM; with OVCAR-4 ovarian, 80.8 µM. Besides, the figures for the TGI in the test on SN12C renal and in the test with OVCAR-3 ovarian were 92.7 µM and 44.2 µM, respectively.

For `C[C@]12CCC(=O)C=C1CC[C@@H]1[C@@H]2CC[C@]2(C)C(=O)NC(=O)C[C@@H]12`, the TGI with TK-10 renal, in the test with MALME-3M melanoma, in the test with IGROV1 ovarian, with A549 NSCLC, in the test with NCI-H23 lung and in the test with 786-0 renal was over 100 µM throughout. The TGI with HCT-15 colon, with SR leukemia, in the test on NCI-H522 lung, in the test on SW-620 colon, in the test with UACC-257 melanoma and in the test with K-562 leukemia was over 100 µM in each case. Besides, the TGI with OVCAR-4 ovarian, with SN12C renal and in the test with OVCAR-3 ovarian was over 100 µM throughout.

Turning to `COC(=O)C(=O)C(C(=O)C(=O)Nc1ccc(F)cc1)c1nc2ccc([N+](=O)[O-])cc2[nH]c1=O` (centres undefined), the TGI in the test on TK-10 renal, in the test with MALME-3M melanoma, in the test with IGROV1 ovarian, in the test on A549 NSCLC, in the test on NCI-H23 lung and with 786-0 renal was over 100 µM throughout. Moreover, the TGI in the test with HCT-15 colon, in the test on SR leukemia, in the test with NCI-H522 lung, in the test on SW-620 colon, in the test with UACC-257 melanoma and in the test with K-562 leukemia was over 100 µM throughout. In addition, the TGI with OVCAR-4 ovarian, in the test with SN12C renal and in the test with OVCAR-3 ovarian was over 100 µM throughout.

Take `O=C(c1cccs1)N(C(=S)N1CCN(c2ccccn2)CC1)c1ccccc1`: the TGI in the test on TK-10 renal, with MALME-3M melanoma, in the test with IGROV1 ovarian, in the test on A549 NSCLC, in the test with NCI-H23 lung and in the test with 786-0 renal was over 100 µM in each case. In addition, the TGI in the test on HCT-15 colon, in the test on SR leukemia, with NCI-H522 lung, in the test with SW-620 colon, in the test on UACC-257 melanoma and in the test with K-562 leukemia was over 100 µM each time. Further, the TGI with OVCAR-4 ovarian, with SN12C renal and in the test on OVCAR-3 ovarian was over 100 µM each time.

Turning to `CCCCOC(=O)C1C2CCC(O2)C1C(=O)OCCCC` (centres undefined), the TGI in the test with TK-10 renal is over 100 µM; with MALME-3M melanoma it was over 100 µM; in the test with IGROV1 ovarian, over 100 µM; with A549 NSCLC, over 100 µM; in the test with NCI-H23 lung, over 100 µM; in the test with 786-0 renal it was over 60.9 µM. The TGI is over 100 µM in the test on HCT-15 colon; over 100 µM in the test with NCI-H522 lung; over 22.9 µM in the test with SW-620 colon; over 92.2 µM in the test with UACC-257 melanoma; over 100 µM with K-562 leukemia; over 100 µM in the test with OVCAR-4 ovarian. Also, the TGI in the test on SN12C renal and with OVCAR-3 ovarian was over 100 µM each time.

On to `NC(=O)N/N=C(\CC1OC(=O)c2ccccc21)c1ccco1` (centres undefined), for which the TGI in the test with TK-10 renal, in the test on MALME-3M melanoma, with IGROV1 ovarian, in the test with A549 NSCLC, in the test on NCI-H23 lung and with 786-0 renal was over 100 µM each time. The TGI in the test on HCT-15 colon, with NCI-H522 lung, in the test on SW-620 colon, with UACC-257 melanoma, in the test with K-562 leukemia and with OVCAR-4 ovarian was over 100 µM in each case. Further, in the test on OVCAR-3 ovarian, the TGI is over 100 µM.

On to `O=c1[nH]c2cc(Cl)ccc2nc1/C(=N\O)C(O)c1cccc([N+](=O)[O-])c1` (centres undefined), for which the TGI in the test with TK-10 renal, with MALME-3M melanoma, in the test with IGROV1 ovarian, with A549 NSCLC, in the test with NCI-H23 lung and in the test with 786-0 renal was over 100 µM each time. Besides, the TGI in the test with NCI-H522 lung, with SW-620 colon, in the test with UACC-257 melanoma, with K-562 leukemia, with OVCAR-4 ovarian and in the test with SN12C renal was over 100 µM in each case. Moreover, the TGI with OVCAR-3 ovarian was over 100 µM.

Consider `COc1cc2c(oc(=O)c3c4oc([Si](C)(C)C)cc4cc(OC)c23)c2cccc(OCc3ccccc3)c12`, for which the TGI in the test with TK-10 renal was over 66.8 µM; in the test with MALME-3M melanoma, over 71.5 µM; in the test with IGROV1 ovarian, over 100 µM; in the test with A549 NSCLC, over 100 µM; with NCI-H23 lung, 35.6 µM; in the test with 786-0 renal, 34.8 µM. Also, the TGI in the test on HCT-15 colon, with SR leukemia, with NCI-H522 lung, in the test on SW-620 colon, in the test on UACC-257 melanoma and with K-562 leukemia was over 100 µM each time. In addition, the TGI in the test with OVCAR-4 ovarian was over 88.5 µM; with SN12C renal, over 100 µM; in the test on OVCAR-3 ovarian it was over 77.9 µM.

For the molecule `NC1=C(NC(=O)Cc2ccc(F)cc2)C(=O)c2ccccc2C1=O`, the TGI was 59 µM in the test on TK-10 renal; over 100 µM with MALME-3M melanoma; 59.4 µM with IGROV1 ovarian; over 100 µM in the test on A549 NSCLC; 27.9 µM with NCI-H23 lung; over 100 µM in the test on 786-0 renal. The TGI is over 100 µM with HCT-15 colon; over 100 µM with SR leukemia; over 70.1 µM in the test on NCI-H522 lung; over 100 µM in the test on SW-620 colon; over 100 µM in the test with UACC-257 melanoma; over 100 µM in the test with K-562 leukemia. The TGI in the test with OVCAR-4 ovarian, in the test on SN12C renal and with OVCAR-3 ovarian was over 100 µM in each case.
